The source made the active and inactive calls. The calls are words filed in the database; no cut-off is given here.
What was measured:
[1] = system: Panel NCI-60 (60 carcinoma cell lines); experiment: Cytotoxicity against human NCI60 cells by SRB assay; format: functional, cell-based
BT-474 [2] = experiment: Induction of mitochondrial membrane potential loss in human BT-474 cells assessed as depolarised cells at 0.25 uM incubated for 24 hrs by […] staining based assay (reference value: 4.18%); format: functional
BT-474 [3] = experiment: Induction of mitochondrial membrane potential loss in human BT-474 cells assessed as depolarised cells at 1 uM incubated for 24 hrs by […] staining based assay (reference value: 4.18%); format: functional
BT-474 [4] = experiment: Induction of apoptosis in human BT-474 cells assessed as horseshoe-shaped nuclei by measuring bright clue colour at 0.25 to 1 uM incubated for 24 hrs by DAPI staining based fluorescence microscope assay; format: functional, cell-based; details: dose 0.25-1 µM
BT-474 [5] = experiment: Induction of mitochondrial membrane potential loss in human BT-474 cells assessed as polarised cells at 0.5 uM incubated for 24 hrs by […] staining based assay (reference value: 93.95%); format: functional
KM12 [6] = experiment: Growth of human KM12 cells relative to control
BT-474 [7] = experiment: Cytotoxicity against human BT-474 cells assessed as cell growth inhibition by MTT assay; format: functional, cell-based
MCF7 [8] = experiment: Growth inhibition of human MCF7 cells; format: functional
K562 [9] = experiment: Growth of human K562 cells relative to control
MCF7 [10] = experiment: Growth of human MCF7 cells relative to control
BT-474 [11] = experiment: Induction of apoptosis in human BT-474 cells assessed as cell shrinkage at 0.25 to 1 uM by phase-contrast microscopy; format: functional, cell-based; details: dose 0.25-1 µM
HT-29 [12] = experiment: Growth inhibition of human HT-29 cells; format: functional
HCT-116 [13] = experiment: Growth inhibition of human HCT-116 cells; format: functional
BT-474 [14] = experiment: Induction of mitochondrial membrane potential loss in human BT-474 cells assessed as depolarised cells at 0.5 uM incubated for 24 hrs by […] staining based assay (reference value: 4.18%); format: functional
BT-474 [15] = experiment: Induction of apoptosis in human BT-474 cells assessed as late apoptotic cells at 0.5 uM incubated for 24 hrs by annexin-V/FITC-PI staining assay (reference value: 1.83%); format: functional
BT-474 [16] = experiment: Induction of apoptosis in human BT-474 cells assessed as late apoptotic cells at 1 uM incubated for 24 hrs by annexin-V/FITC-PI staining assay (reference value: 1.83%); format: functional
BT-474 [17] = experiment: Induction of apoptosis in human BT-474 cells assessed as viable cells at 0.5 uM incubated for 24 hrs by annexin-V/FITC-PI staining assay (reference value: 88.49%); format: functional; details: read-out: Activity
NCI-H460 [18] = experiment: Growth inhibition of human NCI-H460 cells; format: functional
MDA-MB-435 [19] = experiment: Growth inhibition of human MDA-MB-435 cells; format: functional
SNB-75 [20] = experiment: Growth inhibition of human SNB75 cells; format: functional
SR [21] = experiment: Growth inhibition of human SR cells; format: functional
BT-474 [22] = experiment: Induction of apoptosis in human BT-474 cells assessed as cellular morphological changes at 0.25 to 1 uM incubated for 24 hrs by AO/EB staining assay; format: functional, cell-based; details: dose 0.25-1 µM
HCT-116 [23] = experiment: Growth of human HCT-116 cells relative to control
HT-29 [24] = experiment: Growth of human HT-29 cells relative to control
RPMI-8226 [25] = experiment: Growth inhibition of human RPMI-8226 cells; format: functional
BT-474 [26] = experiment: Induction of apoptosis in human BT-474 cells assessed as fragmented nucleus by measuring bright clue colour at 0.25 to 1 uM incubated for 24 hrs by DAPI staining based fluorescence microscope assay; format: functional, cell-based; details: dose 0.25-1 µM
BT-474 [27] = experiment: Induction of apoptosis in human BT-474 cells assessed as nuclear shrinkage by measuring bright clue colour at 0.25 to 1 uM incubated for 24 hrs by DAPI staining based fluorescence microscope assay; format: functional, cell-based; details: dose 0.25-1 µM
BT-474 [28] = experiment: Induction of apoptosis in human BT-474 cells assessed as viable cells at 1 uM incubated for 24 hrs by annexin-V/FITC-PI staining assay (reference value: 88.49%); format: functional; details: read-out: Activity
BT-474 [29] = experiment: Induction of mitochondrial membrane potential loss in human BT-474 cells assessed as polarised cells at 0.25 uM incubated for 24 hrs by […] staining based assay (reference value: 93.95%); format: functional
BT-474 [30] = experiment: Induction of apoptosis in human BT-474 cells assessed as reduced number of viable cells at 0.25 to 1 uM by phase-contrast microscopy; format: functional, cell-based; details: dose 0.25-1 µM
LOX IMVI [31] = experiment: Growth of human LOX IMVI cells relative to control
MDA-MB-435 [32] = experiment: Growth of human MDA-MB-435 cells relative to control
SR [33] = experiment: Growth of human SR cells relative to control
BT-474 [34] = experiment: Induction of apoptosis in human BT-474 cells assessed as pyknotic and chromatin condensation by measuring bright clue colour at 0.25 to 1 uM incubated for 24 hrs by DAPI staining based fluorescence microscope assay; format: functional, cell-based; details: dose 0.25-1 µM
BT-474 [35] = experiment: Inhibition of colony formation in human BT-474 cells by clonogenic assay; format: functional, cell-based
K562 [36] = experiment: Growth inhibition of human K562 cells; format: functional
BT-474 [37] = experiment: Induction of apoptosis in human BT-474 cells assessed as necrotic cells at 1 uM incubated for 24 hrs by annexin-V/FITC-PI staining assay (reference value: 0.24%); format: functional
LOX IMVI [38] = experiment: Growth inhibition of human LOX IMVI cells; format: functional
NCI-H460 [39] = experiment: Growth of human NCI-H460 cells relative to control
BT-474 [40] = experiment: Induction of ROS production in human BT-474 cells assessed as increase in intracellular ROS level incubated for 24 hrs by DCF-DA staining based assay; format: functional, cell-based; details: dose 0.25-1 µM
BT-474 [41] = experiment: Induction of apoptosis in human BT-474 cells assessed as early apoptotic cells at 0.5 uM incubated for 24 hrs by annexin-V/FITC-PI staining assay (reference value: 9.44%); format: functional
BT-474 [42] = experiment: Induction of apoptosis in human BT-474 cells assessed as necrotic cells at 0.5 uM incubated for 24 hrs by annexin-V/FITC-PI staining assay (reference value: 0.24%); format: functional
RPMI-8226 [43] = experiment: Growth of human RPMI-8226 cells relative to control
BT-474 [44] = experiment: Induction of mitochondrial membrane potential loss in human BT-474 cells assessed as polarised cells at 1 uM incubated for 24 hrs by […] staining based assay (reference value: 93.95%); format: functional
KM12 [45] = experiment: Growth inhibition of human KM12 cells; format: functional
BT-474 [46] = experiment: Induction of apoptosis in human BT-474 cells assessed as […] at 0.25 to 1 uM by phase-contrast microscopy; format: functional, cell-based; details: dose 0.25-1 µM
SNB-75 [47] = experiment: Growth of human SNB75 cells relative to control
BT-474 [48] = experiment: Induction of apoptosis in human BT-474 cells assessed as early apoptotic cells at 1 uM incubated for 24 hrs by annexin-V/FITC-PI staining assay (reference value: 9.44%); format: functional
[49] = read-out: LC50 (the source's name)

## Brc1ccc(Oc2ccc(Nc3ncnc4onc(-c5ccccc5)c34)cc2)cc1
[1]
  Activity: Active

## COc1ccc(COc2ccc(Nc3ncnc4onc(-c5ccccc5)c34)cc2)cc1
[1]
  Activity: Active

## COc1ccc(Nc2ncnc3onc(-c4ccccc4)c23)cc1
[1]
  Activity: Active

## Clc1cccc(COc2ccc(Nc3ncnc4onc(-c5ccccc5)c34)cc2)c1
[1]
  Activity: Active

## Brc1ccc(COc2ccc(Nc3ncnc4onc(-c5ccccc5)c34)cc2)cc1
[1]
  Activity: Active

## O=c1cc(Cc2ccc(Oc3ccc(Nc4ncnc5onc(-c6ccccc6)c45)cc3)cc2)c2ccccc2o1
[1]
  Activity: Active

## c1ccc(-c2noc3ncnc(Nc4ccc(N5CCOCC5)cc4)c23)cc1
[1]
  Activity: Active

## c1ccc(Oc2ccc(Nc3ncnc4onc(-c5ccccc5)c34)cc2)cc1
[1]
  Activity: Active

## CCOC(=O)c1ccc(Oc2ccc(Nc3ncnc4onc(-c5ccccc5)c34)cc2)cc1
[1]
  Activity: Active

## Clc1ccc(COc2ccc(Nc3ncnc4onc(-c5ccccc5)c34)cc2)cc1
[1]
  Activity: Active

## c1ccc(Nc2ncnc3onc(-c4ccccc4)c23)cc1
[1]
  Activity: Active

## Fc1ccc(COc2ccc(Nc3ncnc4onc(-c5ccccc5)c34)cc2)cc1
[1]
  Activity: Active

## Cc1cc(C)cc(Oc2ccc(Nc3ncnc4onc(-c5ccccc5)c34)cc2)c1
[1]
  Activity: Active

## c1ccc(COc2ccc(Nc3ncnc4onc(-c5ccccc5)c34)cc2)cc1
[1]
  Activity: Active

## COc1cccc(COc2ccc(Nc3ncnc4onc(-c5ccccc5)c34)cc2)c1
[1]
  Activity: Active

## Cc1ccc(COc2ccc(Nc3ncnc4onc(-c5ccccc5)c34)cc2)cc1
[1]
  Activity: Active

## Fc1cccc(COc2ccc(Nc3ncnc4onc(-c5ccccc5)c34)cc2)c1
BT-474 [2]
  Activity: 5.5%
BT-474 [3]
  Activity: 18.83%
BT-474 [4]
  Activity: Active
BT-474 [5]
  Activity: 78.84%
KM12 [6]
  growth, % of control: 9.57%
BT-474 [7]
  IC50: 0.64 µM
MCF7 [8]
  GI50: 0.037 µM
  TGI: > 100 µM
MCF7 [8]; [49]
  CC50: > 100 µM
K562 [9]
  growth, % of control: 12.08%
MCF7 [10]
  growth, % of control: 14.05%
BT-474 [11]
  Activity: Active
HT-29 [12]
  GI50: 0.053 µM
  TGI: 11.6 µM
HT-29 [12]; [49]
  CC50: > 100 µM
HCT-116 [13]
  GI50: 0.058 µM
  TGI: > 100 µM
HCT-116 [13]; [49]
  CC50: > 100 µM
BT-474 [14]
  Activity: 16.12%
BT-474 [15]
  Activity: 6.9%
BT-474 [16]
  Activity: 7.19%
BT-474 [17]
  viability at 0.5 µM: 64.9%
NCI-H460 [18]
  GI50: 0.05 µM
  TGI: 28.4 µM
NCI-H460 [18]; [49]
  CC50: > 100 µM
MDA-MB-435 [19]
  GI50: 0.032 µM
SNB-75 [20]
  GI50: 0.026 µM
  TGI: 0.386 µM
SNB-75 [20]; [49]
  CC50: > 100 µM
SR [21]
  GI50: 0.067 µM
  TGI: > 100 µM
SR [21]; [49]
  CC50: > 100 µM
BT-474 [22]
  Activity: Active
[1]
  Activity: Active
HCT-116 [23]
  growth, % of control: 8.15%
HT-29 [24]
  growth, % of control: 3.86%
RPMI-8226 [25]
  GI50: 0.058 µM
  TGI: > 100 µM
RPMI-8226 [25]; [49]
  CC50: > 100 µM
BT-474 [26]
  Activity: Active
BT-474 [27]
  Activity: Active
BT-474 [28]
  viability at 1 µM: 63.3%
BT-474 [29]
  Activity: 92.79%
BT-474 [30]
  Activity: Active
LOX IMVI [31]
  growth, % of control: 23.07%
MDA-MB-435 [32]
  growth, % of control: -54.67%
SR [33]
  growth, % of control: 26.06%
BT-474 [34]
  Activity: Active
BT-474 [35]
  Activity: Dose-Dependent Effect
K562 [36]
  GI50: 0.095 µM
  TGI: > 100 µM
K562 [36]; [49]
  CC50: > 100 µM
BT-474 [37]
  Activity: 1.55%
LOX IMVI [38]
  GI50: 0.949 µM
  TGI: > 100 µM
LOX IMVI [38]; [49]
  CC50: > 100 µM
NCI-H460 [39]
  growth, % of control: 2.61%
BT-474 [40]
  Activity: Dose-Dependent Effect
BT-474 [41]
  Activity: 27.1%
BT-474 [42]
  Activity: 1.06%
RPMI-8226 [43]
  growth, % of control: 12.49%
BT-474 [44]
  Activity: 75.08%
KM12 [45]
  GI50: 0.08 µM
  TGI: 14.8 µM
KM12 [45]; [49]
  CC50: > 100 µM
BT-474 [46]
  Activity: Active
SNB-75 [47]
  growth, % of control: -34.93%
BT-474 [48]
  Activity: 27.93%

## Clc1ccc(Oc2ccc(Nc3ncnc4onc(-c5ccccc5)c34)cc2)c(Cl)c1
[1]
  Activity: Active

## Fc1ccccc1Nc1ncnc2onc(-c3ccccc3)c12
[1]
  Activity: Active

## c1ccc(-c2noc3ncnc(Nc4ccc(Oc5cccc6ccccc56)cc4)c23)cc1
[1]
  Activity: Active

## c1ccc(-c2noc3ncnc(Nc4ccc(Oc5ccc6ccccc6c5)cc4)c23)cc1
[1]
  Activity: Active

## Fc1ccc(Oc2ccc(Nc3ncnc4onc(-c5ccccc5)c34)cc2)cc1
[1]
  Activity: Active

## Clc1cccc(Nc2ncnc3onc(-c4ccccc4)c23)c1
[1]
  Activity: Active

## c1ccc(-c2noc3ncnc(Nc4ccc(Oc5ccccc5-c5ccnc6ccccc56)cc4)c23)cc1
[1]
  Activity: Active

## FC(F)(F)Oc1ccc(Oc2ccc(Nc3ncnc4onc(-c5ccccc5)c34)cc2)cc1
[1]
  Activity: Active

## Clc1ccc(COc2ccc(Nc3ncnc4onc(-c5ccccc5)c34)cc2)c(Cl)c1
[1]
  Activity: Active

## Clc1ccccc1Oc1ccc(Nc2ncnc3onc(-c4ccccc4)c23)cc1
[1]
  Activity: Active

## O=C(O)CNc1ncnc2onc(-c3ccccc3)c12
[1]
  Activity: Active
